Source: PMC8881063 (Journal of Enzyme Inhibition and Medicinal Chemistry, 2022)
Entries after “also recorded” stand apart in the source; their conditions may differ.

Experiments:
recombinant human MAO-A = target: T1, recombinant human MAO-A (Homo sapiens, UniProt P21397); test: hMAO-A inhibition, spectrophotometric assay; format: biochemical
T1 sequence (P21397 1-527): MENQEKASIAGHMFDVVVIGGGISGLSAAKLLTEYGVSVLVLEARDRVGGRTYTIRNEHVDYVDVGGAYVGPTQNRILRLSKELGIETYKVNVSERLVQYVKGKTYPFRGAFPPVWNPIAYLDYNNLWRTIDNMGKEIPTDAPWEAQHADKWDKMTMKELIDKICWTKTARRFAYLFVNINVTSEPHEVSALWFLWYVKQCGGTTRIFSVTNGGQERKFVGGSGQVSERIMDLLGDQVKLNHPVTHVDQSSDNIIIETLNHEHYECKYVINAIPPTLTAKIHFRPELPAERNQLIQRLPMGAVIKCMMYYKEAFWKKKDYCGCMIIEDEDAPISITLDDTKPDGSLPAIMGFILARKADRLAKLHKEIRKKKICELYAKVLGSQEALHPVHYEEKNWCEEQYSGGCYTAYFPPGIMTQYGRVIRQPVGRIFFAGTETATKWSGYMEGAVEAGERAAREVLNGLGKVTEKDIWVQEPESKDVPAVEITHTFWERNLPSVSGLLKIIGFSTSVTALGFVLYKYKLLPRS
Excerpt: Two different MAO isoforms are known.

BV2 cells = test: BV2 cell viability, WST-1 assay; format: cell-based; conditions: doses of 1, 10, 30 and 50 µM
Excerpt: Promising antineurodegenrative candidate molecules should not impair viability of CNS cells. Microglia are critical cells within CNS involved in microglia–neuron communications and are responsible for maintenance of brain integrity and health[61]^,[62]. However, under neuroinflammatory conditions, aberrant activation of microglia contributes to neurodegeneration and disease progression. In this regard, suppression of the abnormal activation while maintenance of viability of microglia is important considerations. […] The viability assay was carried out using the water-soluble tetrazolium reagent WST-1 which eliminates the formazan dissolution step requested in case of MTT[65] employing multiple doses of 1, 10, 30, and 50 µM. […] In lieu of this, it might be inferred that these compounds showing effective inhibition of MAO-B activity and triggering no impairment of microglia viability are good candidates might be advanced for further evaluation towards the development of multifunctional molecules for neurodegenerative diseases such as PD.
The impact of the compounds on the viability of cells was performed by the well-known WST-1 assay method as described in the Supporting information.

[1] = test system: LPS-treated BV2 cells (NO production); test: LPS-induced production of nitric oxide in BV2 cells; format: cell-based; conditions: different concentrations, Figure 3(A)
Procedure: (§1) Neuroinflammation is a crucial component in neurodegenerative diseases. Chronic activation of microglia, which are the brain-resident form of macrophages, results in sustained production of several proinflammatory mediators including glial NO, PGE2, and others molecules that are implicated in multiple neurodegenerative diseases. […] In this regard, LPS-treated BV2 cells were incubated with or without different concentrations of each compound. […] Based on collective results of antineuroinflammatory activity evaluation, in conjugation with above-conducted MAO inhibitions’ assays, compound 1p might be claimed as a promising lead compound eliciting polypharmacological effects combining inhibition of neuroinflammation and MAO-B activity; both processes are crucial components of neurodegenerative diseases such as PD.
(§2) The abilities of compounds to inhibit the induced production of NO and PGE2 were assessed by well-known protocol as indicated in the Supporting information.

[2] = test system: LPS-treated BV2 cells (PGE2 production); test: LPS-induced production of PGE2 in BV2 cells; format: cell-based; conditions: different concentrations, Figure 3(B)
Procedure: as §1, §2

MAO-B [3] = target: T2, MAO-B (Homo sapiens, UniProt P27338); test: MAO-B inhibition kinetic study (Michaelis–Menten, Lineweaver–Burk); format: biochemical
T2 sequence (P27338 1-520): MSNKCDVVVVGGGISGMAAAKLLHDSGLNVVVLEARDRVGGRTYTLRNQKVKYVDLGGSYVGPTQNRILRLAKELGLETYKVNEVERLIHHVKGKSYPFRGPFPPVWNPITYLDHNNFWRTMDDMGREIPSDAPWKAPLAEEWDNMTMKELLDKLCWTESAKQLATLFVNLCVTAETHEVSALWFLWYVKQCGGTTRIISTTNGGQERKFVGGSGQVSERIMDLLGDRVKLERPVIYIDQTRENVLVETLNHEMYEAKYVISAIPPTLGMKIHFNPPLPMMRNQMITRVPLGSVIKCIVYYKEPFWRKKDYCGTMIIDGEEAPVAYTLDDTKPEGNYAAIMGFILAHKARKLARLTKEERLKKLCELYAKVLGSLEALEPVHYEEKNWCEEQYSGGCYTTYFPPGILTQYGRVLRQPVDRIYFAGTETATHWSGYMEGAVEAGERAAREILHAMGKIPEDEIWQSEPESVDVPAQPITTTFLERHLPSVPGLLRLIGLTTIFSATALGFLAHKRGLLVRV
Procedure: (§3) To get insights into MAO-B inhibition reaction by compounds 1p and 1y, a kinetic study and reversibility testing were conducted. As illustrated in Figure 4(A,B), Michaelis–Menten graphs were constructed using different concentrations of compounds 1p and 1y employing different concentrations benzylamine as a substrate.
(§4) Kinetics of the inhibition of MAO-B and testing of reversibility were conducted according to literature-reported protocols[59] as indicated in the Supporting information.

MAO-B [4] = target: T2, MAO-B; test: MAO-B inhibition reversibility testing (washing); format: biochemical; conditions: enzymatic activity after washing
Procedure: as §3, §4

MAO-B [5] = target: T2, MAO-B; test: hMAO-B inhibition, spectrophotometric assay
Procedure: The inhibitory activities of the compounds against hMAO-A and hMAO-B enzymes were evaluated referring to a previously described method (Supporting information)[49].

COc1ccc(/C=C2\Oc3cc(O)ccc3C2=O)c(OC)c1OC [Compound 1p]
IC50 (recombinant human MAO-A): > 100 µM
inhibition at 10 µM (recombinant human MAO-A; single dose concentration of 10 µM): -1.53%
Impact on viability of BV2 cells (BV2 cells): none of the tested concentrations
Effect on LPS-induced NO production by BV2 cells [1]: significant inhibition of NO production
Effect on LPS-induced PGE2 production by BV2 cells [2]: effectively suppressed the induced-PGE2 production
Type of MAO-B inhibition (MAO-B [3]; Lineweaver–Burk plots): competitive inhibitors; also recorded: Competitive inhibition
Ki (MAO-B [3]; benzylamine as substrate): 0.0365 µM
Reversibility of MAO-B inhibition (MAO-B [4]): washing restored the enzymatic activity
IC50 (MAO-B [5]): 0.171 µM
Selectivity index for inhibition of MAO-B (MAO-B [5]; IC50 MAO-A divided by IC50 MAO-B): >583
inhibition at 10 µM (MAO-B [5]; read-out: MAO-B % Inhibition, single dose concentration of 10 µM): 96.7%
